In paper PMC6320368, “A T-cell receptor escape channel allows broad T-cell response to CD1b and membrane phospholipids” (Nature Communications, 2019):

What was measured:
[1] = target: T1, CD1b (human CD1b monomer with β2m; CD1b tetramer) (Homo sapiens, UniProt P29016); test: lipid-loaded CD1b tetramer staining of T-cell lines; type: cell-based; settings: indirect read-out of lipid loading; CHAPS, citrate pH 7.4, 37 °C loading
T1 construct: soluble ectodomain with beta-2-microglobulin; His-tag purified; from High Five insect cells or HEK293S GnTI- (crystals, SPR); tetramer-facility monomers from U293 cells; with Beta-2-microglobulin
T1 sequence (P29016 20-296): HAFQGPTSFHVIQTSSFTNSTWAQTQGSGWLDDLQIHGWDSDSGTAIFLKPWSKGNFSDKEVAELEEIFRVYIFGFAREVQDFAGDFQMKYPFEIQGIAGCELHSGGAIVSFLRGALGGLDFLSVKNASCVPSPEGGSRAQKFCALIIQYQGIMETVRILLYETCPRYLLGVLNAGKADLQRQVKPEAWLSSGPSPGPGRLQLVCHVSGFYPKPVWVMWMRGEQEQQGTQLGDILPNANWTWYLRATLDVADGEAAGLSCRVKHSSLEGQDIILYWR
T1 sequence (P61769 21-119 partner): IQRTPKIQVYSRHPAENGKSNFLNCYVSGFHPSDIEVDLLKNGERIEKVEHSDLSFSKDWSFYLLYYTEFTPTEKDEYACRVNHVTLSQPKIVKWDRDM

[2] = target: T1, CD1b (human CD1b monomer with β2m; CD1b tetramer); test: SPR of BC8B TCR on lipid-loaded CD1b; tetramer staining; type: binding; settings: indirect read-out of lipid loading; pH 8.0, 25 °C

Structure (SMILES) | lipid-loaded CD1b tetramer staining of T-cell lines [1] | SPR of BC8B TCR on lipid-loaded CD1b; tetramer staining [2]
CCCCCCCC/C=C\CCCCCCCC(=O)OC[C@@H](O)COP(=O)(O)O [LPA, lysophosphatidic acid] | specifically stained with phospholipids carrying small head groups, such as PG and LPA | 
CCCCCCCCCCCCC/C=C/[C@@H](O)[C@H](COP(=O)([O-])OCC[N+](C)(C)C)NC(=O)CCCCCCCCCCCCCCC [SM, sphingomyelin] |  | The BC8B TCR detectably interacted with CD1b presenting the sphingolipid antigens, SM and sulfatide
